These results are taken from patent publication US9073918B2, “Pyrazolo[4,3-b]pyridine-7-amine inhibitors of ALK5” (Takeda Pharmaceutical Company Limited, priority 2010, dated 2015).

The structures appear in SMILES notation.

One assay addresses T1, TGF-β R1 ALK5 (Homo sapiens, UniProt P36897).
T1 construct: purchased Invitrogen PV5837
T1 sequence (P36897 34-503): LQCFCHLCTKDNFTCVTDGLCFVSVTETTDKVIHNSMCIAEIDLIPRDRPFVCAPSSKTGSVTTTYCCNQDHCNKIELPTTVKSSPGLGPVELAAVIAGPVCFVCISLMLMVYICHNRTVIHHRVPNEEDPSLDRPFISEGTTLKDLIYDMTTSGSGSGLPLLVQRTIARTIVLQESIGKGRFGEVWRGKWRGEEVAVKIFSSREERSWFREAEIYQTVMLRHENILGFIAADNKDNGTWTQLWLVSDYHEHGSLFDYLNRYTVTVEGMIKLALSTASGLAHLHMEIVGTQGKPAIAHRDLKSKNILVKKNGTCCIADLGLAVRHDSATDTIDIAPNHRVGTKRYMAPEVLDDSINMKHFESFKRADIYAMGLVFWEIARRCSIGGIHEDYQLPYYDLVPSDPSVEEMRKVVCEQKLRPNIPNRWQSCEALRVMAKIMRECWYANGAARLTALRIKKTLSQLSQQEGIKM
The experiment in a line: In vitro inhibition of ALK5 (LanthaScreen activity assay, TR-FRET). In kind it is biochemical. As for the experimental part:
Test compounds were screened for TGF-β R1 ALK5 inhibition by use of a LanthaScreen™ activity assay (PV5837 Invitrogen, Invitrogen Corp. Madison, Wis.).
In brief, the assay procedure was as follows:
Solutions of test compounds were prepared in DMSO and diluted two-fold serially.
Assays were incubated for 90 minutes at room temperature and then quenched by the addition of 60 mM EDTA and 8 nM Terbium labeled anti-pSMAD3 Antibody (M4337 from Invitrogen) giving a final concentration of 15 mM EDTA and 2 nM Terbium labeled anti-pSMAD3 Antibody. Phosphorylated peptide product was quantified by measuring an increase in TR-FRET on a BMG LABTECH PHERA star plus. Response is defined as the ratio of Channel A/Channel B. The response of a blank (uninhibited) using vehicle alone is also determined. Enzyme activity was defined as the response of uninhibited enzyme activity minus the response of assays containing no enzyme. The percent inhibition of ALK5 at a given compound concentration is defined as: 100%×[1−(response compound/response blank)]
where response compound is defined as the enzyme activity in the presence of test compound and response blank is defined as the uninhibited enzyme activity. The pIC50 value (negative log of the molar concentration of the compound that produces 50% inhibition) of a test compound is calculated by non-linear least squares curve fitting of the equation: Percent Inhibition=100%/(1+(10−pIC50/10 log [I])).
Where inhibition was measured in multiple experiments the value in Table 1 is an average. N.T. means not tested.
(In TR-FRET formats the signal depends on donor and acceptor labels being close together.)

A further assay has as its target T2, cellular TGF-β R1 ALK5 (Homo sapiens, UniProt P36897).
T2 construct: host or cells: CellSensor SBE-bla HEK 293T
T2 sequence (P36897 34-503): T1 sequence (P36897 34-503)
As to the kind of experiment: Cellular inhibition of ALK5 (CellSensor SBE-bla HEK 293T beta-lactamase reporter). As to conditions: cellular inhibition of ALK5, SBE-bla HEK 293T cells, TGFb-1 stimulated 5 hours; average where measured in multiple experiments. Format: cell-based. From the text:
Test compounds were screened for cellular TGF-β R1 ALK5 inhibition by use of a CellSensor® SBE-bla HEK 293T (K1550, Invitrogen Corp. Madison, Wis.) cell line. The CellSensor® SBE-bla HEK 293T cell line contains a beta-lactamase reporter gene under control of the SBE response element stably integrated into HEK 293T cells. The SBE response element is a DNA region that binds activated SMADs which results from the binding of TGF-β to, and subsequent activation of ALK5.
The assay procedure was as follows:
CellSensor® SBE-bla HEK 293T cell line were plated at 12,000 cells/well in 40 ul DMEM plus 5 ug/ml blasticidin into 384-well, black-wall, clear-bottom assay plate and incubated overnight.
The following day 5 uL of 10×, 2.5-fold serially diluted test compounds in DMSO were added into cells to a final compound concentration of 1× and DMSO concentration of 0.5%. Assay was incubated for 1 hour at 37° C., 5% CO2, 5 uL of 100 ng/mL TGFb-1 was then added to activate ALK5 and incubated for 5 hours at 37° C., 5% CO2, 10 uL of detector, LiveBLAzer FRET B/G substrate (CCF4-AM, Invitrogen Corp. Madison, Wis.) was added to cells and incubated for 2 hours at RT. Assay was measured using Spectramax, a bottom-read fluorescence plate reader, at excitation setting of 405 nm and emission settings of 460 nm and 530 nm.
Response is defined as the ratio of background corrected 460 nm emission values/background corrected 530 nm emission values. Cellular activity was defined as percent inhibition of uninhibited ALK5 activity (wells treated with DMSO+TGF-β). The percent inhibition of cellular ALK5 at a given compound concentration is defined as: 100%×[1−(response compound+TGF-β/response DMSO+TGF-β)] where response compound+TGF-β is defined as the activity in the presence of test compound and response DMSO+TGF-β is defined as the uninhibited cellular ALK5 activity. The pIC50 value (negative log of the molar concentration of the compound that produces 50% inhibition) of a test compound is calculated by non-linear least squares curve fitting. pIC50 values, the negative of the log of the IC50, are calculated by non-linear curve fitting of the compound concentrations and percent of inhibition to the standard pIC50 equation.
Where inhibition was measured in multiple experiments the value in Table 2 is an average. N.T. means not tested.

As usually defined, the IC50 is the midpoint of a concentration-inhibition curve. Read a low IC50 as inhibition by little substance.

Regarding `CNC(=O)Cn1ncc2nccc(Nc3cc(-c4nc(C)ccc4F)ncc3C)c21` [Example 145, 2-(7-(3′-fluoro-5,6′-dimethyl-2,2′-bipyridin-4-ylamino)-1H-pyrazolo[4,3-b]pyridin-1-yl)-N-methylacetamide], the IC50 on TGF-β R1 ALK5 is 15.8 nM; against cellular TGF-β R1 ALK5, 126 nM.

For the compound `Cc1ccc(F)c(-c2cc(Nc3ccnc4cnn(C[C@@H](C)O)c34)ccn2)n1` [Example 98, (R)-1-(7-(3′-fluoro-6′-methyl-2,2′-bipyridin-4-ylamino)-1H-pyrazolo[4,3-b]pyridin-1-yl)propan-2-ol], the concentration for half-maximal inhibition (IC50) against TGF-β R1 ALK5 was 6.31 nM; against cellular TGF-β R1 ALK5, 25.1 nM.

`Cc1ccc(F)c(-c2cc(Nc3ccnc4cnn(C5CC5)c34)ccn2)n1` [Example 133, 1-cyclopropyl-N-(3′-fluoro-6′-methyl-2,2′-bipyridin-4-yl)-1H-pyrazolo[4,3-b]pyridin-7-amine]: the concentration for half-maximal inhibition (IC50) was 5.01 nM against TGF-β R1 ALK5 and 31.6 nM at cellular TGF-β R1 ALK5.

For the compound `Cc1ccc(F)c(-c2cc(Nc3ccnc4cn(CCF)nc34)c(C)cn2)n1` [Example 129, N-(3′-fluoro-5,6′-dimethyl-2,2′-bipyridin-4-yl)-2-(2-fluoroethyl)-2H-pyrazolo[4,3-b]pyridin-7-amine], the figures for the IC50 against TGF-β R1 ALK5 and against cellular TGF-β R1 ALK5 were 6.31 nM and 15.8 nM, respectively.

On to `Cc1ccc(F)c(-c2cc(Nc3ccnc4cnn([C@@H]5CCOC5)c34)c(C)cn2)n1` [Example 137, (R)—N-(3′-fluoro-5,6′-dimethyl-2,2′-bipyridin-4-yl)-1-(tetrahydrofuran-3-yl)-1H-pyrazolo[4,3-b]pyridin-7-amine], for which the values for the half-maximal inhibitory concentration (IC50) against TGF-β R1 ALK5 and at cellular TGF-β R1 ALK5 were 20 nM and 79.4 nM, respectively.

Turning to `Cc1ccc(F)c(-c2cc(Nc3ccnc4cnn(CC(C)(C)O)c34)ccn2)n1` [Example 70, 1-(7-(3′-fluoro-6′-methyl-2,2′-bipyridin-4-ylamino)-1H-pyrazolo[4,3-b]pyridin-1-yl)-2-methylpropan-2-ol], the figures for the concentration for half-maximal inhibition (IC50) against TGF-β R1 ALK5 and at cellular TGF-β R1 ALK5 were 15.8 nM and 31.6 nM, respectively.

Regarding `Cc1cnc(-c2cc(F)ccc2F)cc1Nc1ccnc2cnn(CC(C)O)c12` (stereo not drawn) [Example 144, 1-(7-(2-(2,5-difluorophenyl)-5-methylpyridin-4-ylamino)-1H-pyrazolo[4,3-b]pyridin-1-yl)propan-2-ol], the results for the half-inhibitory concentration (IC50) against TGF-β R1 ALK5 and on cellular TGF-β R1 ALK5 were 2.51 nM and 20 nM, respectively.

For `Cc1cccc(-c2cc(Nc3ccnc4cn[nH]c34)c(C)cn2)n1` [Example 6, N-(5,6′-dimethyl-2,2′-bipyridin-4-yl)-1H-pyrazolo[4,3-b]pyridin-7-amine], the IC50 against TGF-β R1 ALK5 is 5.01 nM; at cellular TGF-β R1 ALK5, 25.1 nM.

With `Cc1ccc(F)c(-c2cc(Nc3ccnc4cnn(CC(O)C(F)(F)F)c34)ccn2)n1` (stereo not drawn) [Example 113, 1,1,1-trifluoro-3-(7-(3′-fluoro-6′-methyl-2,2′-bipyridin-4-ylamino)-1H-pyrazolo[4,3-b]pyridin-1-yl)propan-2-ol], the 50% inhibitory concentration (IC50) against TGF-β R1 ALK5 is 50.1 nM; against cellular TGF-β R1 ALK5 it was 1580 nM.

As for `Fc1ccc(Cl)cc1-c1cc(Nc2ccnc3cnn(CC4CC4)c23)ccn1` [Example 36, N-(2-(5-chloro-2-fluorophenyl)pyridin-4-yl)-1-(cyclopropylmethyl)-1H-pyrazolo[4,3-b]pyridin-7-amine], the IC50 against TGF-β R1 ALK5 and on cellular TGF-β R1 ALK5 was 631 nM throughout.

As for `Cc1ccc(F)c(-c2cc(Nc3ccnc4cnn(C[C@H](C)O)c34)ccn2)n1` [Example 106, (S)-1-(7-(3′-fluoro-6′-methyl-2,2′-bipyridin-4-ylamino)-1H-pyrazolo[4,3-b]pyridin-1-yl)propan-2-ol], the half-inhibitory concentration (IC50) at TGF-β R1 ALK5 is 126 nM; against cellular TGF-β R1 ALK5 it was 1260 nM.

On to `Cc1ccc(F)c(-c2cc(Nc3ccnc4cn(CCC(C)(C)O)nc34)ccn2)n1` [Example 119, 4-(7-(3′-fluoro-6′-methyl-2,2′-bipyridin-4-ylamino)-2H-pyrazolo[4,3-b]pyridin-2-yl)-2-methylbutan-2-ol], for which the results for the IC50 against TGF-β R1 ALK5 and on cellular TGF-β R1 ALK5 were 20 nM and 79.4 nM, respectively.

In the case of `Cc1cnc(-c2cc(Cl)ccc2F)cc1Nc1ccnc2cn[nH]c12` [Example 49, N-(2-(5-chloro-2-fluorophenyl)-5-methylpyridin-4-yl)-1H-pyrazolo[4,3-b]pyridin-7-amine], the half-maximal inhibitory concentration (IC50) against TGF-β R1 ALK5 and against cellular TGF-β R1 ALK5 was 31.6 nM each time.

In the case of `CNC(=O)n1ncc2nccc(Nc3ccnc(-c4cc(Cl)ccc4F)c3)c21` [Example 32, 7-(2-(5-chloro-2-fluorophenyl)pyridin-4-ylamino)-N-methyl-1H-pyrazolo[4,3-b]pyridine-1-carboxamide], the 50% inhibitory concentration (IC50) against TGF-β R1 ALK5 and on cellular TGF-β R1 ALK5 was 50.1 nM in each case.

Take `CNC(=O)n1ncc2nccc(Nc3cc(-c4cccc(C)n4)ncc3C)c21` [Example 81, 7-(5,6′-dimethyl-2,2′-bipyridin-4-ylamino)-N-methyl-1H-pyrazolo[4,3-b]pyridine-1-carboxamide]: the half-maximal inhibitory concentration (IC50) against TGF-β R1 ALK5 is 63.1 nM; against cellular TGF-β R1 ALK5, 126 nM.

As for `CCNC(=O)n1ncc2nccc(Nc3ccnc(-c4cc(F)ccc4F)c3)c21` [Example 93, 7-(2-(2,5-difluorophenyl)pyridin-4-ylamino)-N-ethyl-1H-pyrazolo[4,3-b]pyridine-1-carboxamide], the results for the IC50 on TGF-β R1 ALK5 and against cellular TGF-β R1 ALK5 were 5.01 nM and 25.1 nM, respectively.

In the case of `Cc1ccc(F)c(-c2cc(Nc3c(F)cnc4cnn(C[C@H](C)O)c34)ccn2)n1` [Example 100B, (S)-1-(6-fluoro-7-(3′-fluoro-6′-methyl-2,2′-bipyridin-4-ylamino)-1H-pyrazolo[4,3-b]pyridin-1-yl)propan-2-ol], the half-maximal inhibitory concentration (IC50) on TGF-β R1 ALK5 is 63.1 nM; at cellular TGF-β R1 ALK5, 251 nM.

With `Cc1cnc(-c2cc(F)ccc2F)nc1Nc1ccnc2cn[nH]c12` [Example 96, N-(2-(2,5-difluorophenyl)-5-methylpyrimidin-4-yl)-1H-pyrazolo[4,3-b]pyridin-7-amine], the IC50 was 20 nM on TGF-β R1 ALK5 and 63.1 nM at cellular TGF-β R1 ALK5.

Consider `CNC(=O)Cn1ncc2nccc(Nc3ccnc(-c4cc(Cl)ccc4F)c3)c21` [Example 31, 2-(7-(2-(5-chloro-2-fluorophenyl)pyridin-4-ylamino)-1H-pyrazolo[4,3-b]pyridin-1-yl)-N-methylacetamide], for which the IC50 on TGF-β R1 ALK5 and against cellular TGF-β R1 ALK5 was 200 nM each time.

On to `Fc1ccc(Cl)cc1-c1cc(Nc2ccnc3cn[nH]c23)ccn1` [Example 17, N-(2-(5-chloro-2-fluorophenyl)pyridin-4-yl)-1H-pyrazolo[4,3-b]pyridin-7-amine], for which the half-maximal inhibitory concentration (IC50) was 5.01 nM against TGF-β R1 ALK5 and 50.1 nM against cellular TGF-β R1 ALK5.

`CCNC(=O)n1ncc2nccc(Nc3cc(-c4cc(Cl)ccc4F)ncc3C)c21` [Example 53, 7-(2-(5-chloro-2-fluorophenyl)-5-methylpyridin-4-ylamino)-N-ethyl-1H-pyrazolo[4,3-b]pyridine-1-carboxamide]: the IC50 against TGF-β R1 ALK5 was 31.6 nM; against cellular TGF-β R1 ALK5 it was 50.1 nM.
